Here are results for 28 compounds from patent US20250296909A1, “NOVEL BENZENE DERIVATIVE AND IMMUNOSUPPRESSION-RELATED USE THEREOF” (PROVIBIO CO., LTD., priority 2021, published 2025).

Like-named read-outs stand apart in the source and are kept apart here.

Data set [1] concerns T lymphocyte cell line Jurkat E6-1. As to the kind of experiment: Cytotoxicity experiment (CCK-8, relative cell survival). Type of data set: cell-based. As to conditions: 24 hours, untreated cells = 100%. The procedure:
To evaluate the cytotoxicity of the compound according to the present invention, the following experiment was conducted.
The T lymphocyte cell line Jurkat E6-1, purchased from the Korean Cell Line Bank, was cultured in RPMI-1640 medium comprising 10% FBS, 100 U/mL penicillin, and 100 μg/mL streptomycin. After culturing, the cells were harvested and centrifuged at 1,300 rpm for 5 minutes. After removal of the supernatant, the cells were resuspended in the same medium at a concentration of approximately 2.2×10^5 cells/mL, and 90 μL of the cell suspension was distributed per well into a 96-well plate (Costar 96 well cell culture plate, Corning). After treating 10 μL of each compound at different concentrations onto the respective wells of the plate, it was cultured for 24 hours at 37° C. in a 5% CO2 incubator. Subsequently, 10 μL of CCK-8 was added to each well, and it was cultured again for 2 hours at 37° C. in a 5% CO2 incubator. Absorbance was then measured at 450 nm to determine the relative cell survival rate compared to untreated cells, as shown in Table 4.
The values listed in Table 4 represent the relative cell survival rates in the groups treated with each compound at different concentrations, with the cell survival rate of untreated cells set as 100%.

In a further data set the test system is spleen T cells. As to the kind of experiment: T cell proliferation inhibition (CFSE, FACS), CD3/CD28-activated spleen T cells. Format: cell-based, C57BL/6 mice. As to conditions: for inhibition at 10 µM / inhibition at 30 µM / inhibition at 50 µM: Mus musculus, T-cell, read-out: Proliferation inhibition rate (%). The procedure: To investigate whether the compounds obtained in the Preparation Example have an inhibitory effect on T cell proliferation, the T cell proliferation was determined ex vivo using the fluorescent dye carboxyfluorescein diacetate succinimidyl ester (CFSE), which binds to intracellular molecules by covalent bonds.
Spleens were harvested and minced from C57BL/6 mice at 7 weeks of age, and then single cells were isolated using a strainer (40 μm pore size, SPL). Red blood cells were removed using ACK (Ammonium-Chloride-Potassium) lysis buffer to isolate only leukocytes. Subsequently, CD90.2 microbeads (130-121-278, Miltenyi Biotech.) were added, and subjected to react at 4° C. for 20 minutes. After that, spleen T cells were isolated using a MACS Magnetic Stand and LS column. The isolated T cells from the spleen were resuspended in 1 mL of Free media (RPMI-1640+200 U/mL penicillin+200 μg/mL streptomycin), followed by the addition of 0.3 μL of CFSE (10 mM), and reacted at 37° C. for 5 minutes. Subsequently, 10 mL of Free media was added to stop the reaction, and the cells were centrifuged to obtain the cell pellet. RPMI 1640 medium containing 10% FBS, 100 U/mL penicillin, and 100 μg/mL streptomycin was added to suspend the cells, and 2×10^5 cells per well were seeded into a 96-well plate and T cells were activated by treatment with CD3 and CD28 antibodies (each at 0.5 μg/mL).
The compound diluted in DMSO was treated in triplicate at concentrations of 10 μM, 30 μM, and 50 μM, respectively. After incubation at 37° C. with 5% CO2 for 3 days, cell proliferation levels were determined using a FACS Canto machine.
In the FACS graph of FIG. 1, the y-axis represents the quantity (number) of cells, while the x-axis represents the fluorescence level of the cells. […] This reduction in CFSE fluorescence results in a leftward shift along the x-axis in the graph. This indicates cell proliferation.
To collectively indicate the proliferation inhibition rate for the experimental results, the relative value of the proliferation amount after compound administration to the proliferation amount after CD3/CD28+DMSO administration was calculated. Subsequently, it was converted into an inhibition amount and expressed as a percentage, thereby determining the proliferation inhibition rate. Specifically, the proliferation inhibition rate was calculated as follows: […]

[2] abbreviates: 72 h, Table 2, 10 μM, 3 days, relative to CD3/CD28+DMSO.
[3] abbreviates: 72 h, Table 2, 30 μM, 3 days, relative to CD3/CD28+DMSO.
[4] abbreviates: 72 h, Table 2, 50 μM, 3 days, relative to CD3/CD28+DMSO.
Where [5] appears, read: Table 2, 10 μM, 3 days, relative to CD3/CD28+DMSO.
The mark [6] stands for this setting: Table 2, 30 μM, 3 days, relative to CD3/CD28+DMSO.
[7] abbreviates: Table 2, 50 μM, 3 days, relative to CD3/CD28+DMSO.
Setting [8] is: Table 3 (compounds not belonging to Formula 1), 10 μM.
[9] abbreviates: Table 3 (compounds not belonging to Formula 1), 30 μM.
[10] abbreviates: Table 3 (compounds not belonging to Formula 1), 50 μM.

On to `CCCCCCCCNC(=O)c1cccnc1N` [Compound 74], for which the “Relative cell survival rate (%)” value in data set [1] (10 μM) is 101%; in data set [1] (20 μM) it was 84%; in data set [1] (30 μM), 81%; in data set [1] (50 μM), 77%. In addition, in the data set with spleen T cells (setting [2]), the inhibition at 10 µM worked out at 66%. Moreover, in the data set with spleen T cells (setting [3]), the inhibition at 30 µM turned out to be 91%. In the data set on spleen T cells (setting [4]), the inhibition at 50 µM was 95%.
`CCCCCCCCCCCCNC(=O)c1ccccc1[N+](=O)[O-]` [Compound 50]: the “Relative cell survival rate (%)” value came out at 74% in data set [1] (10 μM), 75% in data set [1] (20 μM), 70% in data set [1] (30 μM) and 68% in data set [1] (50 μM). For the same compound, the “Proliferation inhibition rate (%)” value with spleen T cells (setting [5]) stood at 0%; in the data set with spleen T cells (setting [6]), 66%; in the data set with spleen T cells (setting [7]) it was 97%.
As for `O=C(Nc1ccccc1)c1ccncc1Br` [Compound 1], the inhibition at 10 µM in the data set on spleen T cells (setting [8]) was determined as 9%. Moreover, the inhibition at 30 µM in the data set on spleen T cells (setting [9]) came to 6%. Besides, the inhibition at 50 µM in the data set on spleen T cells (setting [10]) came out at 7%.
Regarding `CCCCCCCCCCCCNC(=O)c1ccc(Cl)cc1Cl` [Compound 60], the inhibition at 10 µM in the data set with spleen T cells (setting [2]) came to 10%. Moreover, the inhibition at 30 µM with spleen T cells (setting [3]) worked out at 72%. In the data set with spleen T cells (setting [4]), the inhibition at 50 µM turned out to be 98%.
With `CCCCCC(=O)Nc1ccccc1CNC(=O)c1ccccc1Br` [Compound 48], the “Relative cell survival rate (%)” value in data set [1] (10 μM) was found to be 100%; in data set [1] (20 μM), 99%; in data set [1] (30 μM), 99%; in data set [1] (50 μM), 98%.
For the compound `Cc1ccccc1NC(=O)c1ccccc1F` [Compound 3], the inhibition at 10 µM with spleen T cells (setting [8]) amounted to 9%. The inhibition at 30 µM with spleen T cells (setting [9]) turned out to be 15%. In the data set with spleen T cells (setting [10]), the inhibition at 50 µM stood at 18%.
For the compound `CCCCCCCCCCCC(=O)Nc1ccccc1Br` [Compound 42], the “Relative cell survival rate (%)” value in data set [1] (10 μM) was determined as 110%; in data set [1] (20 μM), 109%; in data set [1] (30 μM), 104%; in data set [1] (50 μM) it was 103%.
Regarding `Cc1ccccc1NC(=O)c1ccccc1Br` [Compound 2], the inhibition at 10 µM with spleen T cells (setting [8]) was 11%. Also, the inhibition at 30 µM with spleen T cells (setting [9]) is 10%. Further, the inhibition at 50 µM with spleen T cells (setting [10]) stood at 11%.
As to `CCCCCCCCCCCCNC(=O)c1cccnc1SC` [Compound 24], the “Relative cell survival rate (%)” value in data set [1] (10 μM) is given as 71%; in data set [1] (20 μM), 68%; in data set [1] (30 μM) it was 61%; in data set [1] (50 μM), 54%.
In the case of `CCCCCCCCCCCCNC(=O)c1cc2ccccc2cc1N` [Compound 23], the “Relative cell survival rate (%)” value in data set [1] (10 μM) is given as 66%; in data set [1] (20 μM), 62%; in data set [1] (30 μM), 62%; in data set [1] (50 μM), 54%.
For `CCCCCC(=O)Nc1cccc(CNC(=O)c2ccccc2Br)c1` [Compound 49], the “Relative cell survival rate (%)” value in data set [1] (10 μM), in data set [1] (20 μM), in data set [1] (30 μM) and in data set [1] (50 μM) was 98% each time.
With `CCCCCCCCCCCCNC(=O)c1cc(Cl)cc(Cl)c1O` [Compound 28], in the data set with spleen T cells (setting [2]), the inhibition at 10 µM was found to be 11%. In addition, in the data set with spleen T cells (setting [3]), the inhibition at 30 µM turned out to be 47%. The inhibition at 50 µM with spleen T cells (setting [4]) is 91%.
On to `O=C(NCCCc1ccccc1)c1ccccc1Br` [Compound 4], for which the inhibition at 10 µM in the data set on spleen T cells (setting [8]) is 23%. In the data set on spleen T cells (setting [9]), the inhibition at 30 µM stood at 12%. For the same compound, the inhibition at 50 µM with spleen T cells (setting [10]) worked out at 16%.
`O=C(Nc1ccccc1Br)c1ccccc1Br` [Compound 9]: the inhibition at 10 µM in the data set with spleen T cells (setting [8]) came to 0%. In the data set with spleen T cells (setting [9]), the inhibition at 30 µM is 0%. Besides, in the data set with spleen T cells (setting [10]), the inhibition at 50 µM turned out to be 0%. In addition, the “cell proliferation read by FACS (FIG. 2)” value with spleen T cells (even at a concentration of 50 μM) is “no inhibition of cell proliferation”.
`CCCCCCCCCCCCNC(=O)c1ccnc(C)c1` [Compound 15]: the inhibition at 10 µM in the data set with spleen T cells (setting [2]) stood at 10%. Besides, the inhibition at 30 µM in the data set on spleen T cells (setting [3]) is 35%. Also, the inhibition at 50 µM in the data set on spleen T cells (setting [4]) was 90%.
`CCCCCC(=O)Nc1ccc(CNC(=O)c2ccccc2Br)cc1` [Compound 47]: the “Relative cell survival rate (%)” value in data set [1] (10 μM) was 98%; in data set [1] (20 μM), 97%; in data set [1] (30 μM), 97%; in data set [1] (50 μM), 96%.
Turning to `CCCCCCCCCCC(CNCc1ccccc1Br)Cc1ccccc1Br` (stereo not drawn) [Compound 44], the “Relative cell survival rate (%)” value is 100% in data set [1] (10 μM), 98% in data set [1] (20 μM), 94% in data set [1] (30 μM) and 93% in data set [1] (50 μM).
For `CCCCCCCCCCCCNC(=O)c1cccnc1S` [Compound 80], the “Proliferation inhibition rate (%)” value in the data set on spleen T cells (setting [5]) was 43%; in the data set on spleen T cells (setting [6]) it was 100%; in the data set on spleen T cells (setting [7]), 100%.
Consider `CCCCCCCCCCCCNC(=O)c1nccc2ccccc12` [Compound 20], for which the “Relative cell survival rate (%)” value in data set [1] (10 μM) worked out at 113%; in data set [1] (20 μM), 108%; in data set [1] (30 μM), 107%; in data set [1] (50 μM) it was 105%.
As to `CCCCCCCCCCCCNC(=O)c1cccc2ccccc12` [Compound 18], the “Relative cell survival rate (%)” value in data set [1] (10 μM) is recorded as 102%; in data set [1] (20 μM), 101%; in data set [1] (30 μM), 99%; in data set [1] (50 μM), 99%.
With `CCCCCCCCCCCCNC(=O)c1cccnc1OC` [Compound 32], in the data set with spleen T cells (setting [2]), the inhibition at 10 µM was determined as 12%. For the same compound, in the data set on spleen T cells (setting [3]), the inhibition at 30 µM amounted to 42%. In the data set on spleen T cells (setting [4]), the inhibition at 50 µM came to 54%.
For the compound `CCCCCCCCCCCCNC(=O)c1ncccc1Cl` [Compound 11], the inhibition at 10 µM in the data set on spleen T cells (setting [2]) was found to be 10%. The inhibition at 30 µM with spleen T cells (setting [3]) is 62%. For the same compound, the inhibition at 50 µM with spleen T cells (setting [4]) worked out at 99%.
In the case of `CCCCCCCCCCCCNS(=O)(=O)c1ccccc1N` [Compound 46], the “Proliferation inhibition rate (%)” value in the data set with spleen T cells (setting [5]) is recorded as 47%; with spleen T cells (setting [6]), 94%; in the data set with spleen T cells (setting [7]), 93%.
For the compound `O=C(NCCCCCCCCCC1CO1)c1ccccc1Br` (stereo not drawn) [Compound 17], the “Relative cell survival rate (%)” value turned out to be 106% in data set [1] (10 μM), 80% in data set [1] (20 μM), 80% in data set [1] (30 μM) and 66% in data set [1] (50 μM).
As to `CCCCCCCCCCCCNC(=O)c1ncccn1` [Compound 79], the inhibition at 10 µM with spleen T cells (setting [2]) is 46%. Moreover, the inhibition at 30 µM in the data set with spleen T cells (setting [3]) worked out at 88%. Also, the inhibition at 50 µM in the data set on spleen T cells (setting [4]) worked out at 100%.
Consider `CCCCCCCCCCCCNS(=O)(=O)c1cnccc1O` [Compound 72], for which the inhibition at 10 µM with spleen T cells (setting [2]) came out at 68%. Further, the inhibition at 30 µM with spleen T cells (setting [3]) was determined as 80%. Also, the inhibition at 50 µM in the data set on spleen T cells (setting [4]) is 86%.
Regarding `CCCCCCCCCCCCNC(=O)c1ccc2cccc(O)c2n1` [Compound 21], the “Relative cell survival rate (%)” value is given as 101% in data set [1] (10 μM), 106% in data set [1] (20 μM), 109% in data set [1] (30 μM) and 124% in data set [1] (50 μM).
For `CCCCCCCCCCCCNC(=O)c1ccc2ccccc2n1` [Compound 22], the “Relative cell survival rate (%)” value in data set [1] (10 μM) stood at 42%; in data set [1] (20 μM) it was 42%; in data set [1] (30 μM), 39%; in data set [1] (50 μM), 36%.
